Data on 18 compounds can be found in ChEMBL document CHEMBL1777783, “The synthesis and biological evaluation of 2-amino-4,5,6,7,8,9-hexahydrocycloocta[b]thiophenes as allosteric modulators of the A1 adenosine receptor” (Bioorg Med Chem Lett, 2011).

Active and inactive are the calls of the source. The calls are words filed in the database; no cut-off is given here.

For test [1], the target named is T1, Adenosine receptor A1 (Homo sapiens) (UniProt P30542).
T1 sequence (whole entry): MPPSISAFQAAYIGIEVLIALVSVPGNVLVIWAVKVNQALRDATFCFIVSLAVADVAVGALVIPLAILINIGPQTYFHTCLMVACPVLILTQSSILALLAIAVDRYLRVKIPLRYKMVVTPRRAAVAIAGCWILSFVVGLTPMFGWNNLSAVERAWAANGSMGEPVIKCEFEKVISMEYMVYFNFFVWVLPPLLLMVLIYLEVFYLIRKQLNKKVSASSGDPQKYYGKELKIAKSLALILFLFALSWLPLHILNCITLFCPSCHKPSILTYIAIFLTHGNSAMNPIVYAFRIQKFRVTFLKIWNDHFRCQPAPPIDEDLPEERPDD
The experiment in a line: Allosteric modulation at human adenosine A1 receptor expressed in CHO FlpIn cells assessed as increase in EC50 concentration of N(6)-(R-phenylisopropyl)adenosine receptor agonist-induced ERK1/2 phosphorylation at 3 uM relative to control. The format is functional, cell-based.

Test [2] deals with T1, Adenosine receptor A1 (Homo sapiens). The experiment in a line: Binding affinity to human adenosine A1 receptor allosteric site expressed in CHO FlpIn cells. The format is cell-based.
Test [3] has the same target. The experiment in a line: Allosteric modulation at human adenosine A1 receptor expressed in CHO FlpIn cells assessed as increase in leftward shift of N(6)-(R-phenylisopropyl)adenosine-mediated ERK1/2 phosphorylation curve at 0.1 to 10 uM. The format is cell-based.
For test [4] the target is unchanged. The experiment in a line: Allosteric modulation at human adenosine A1 receptor expressed in CHO FlpIn cells assessed as increase in EC50 concentration of N(6)-(R-phenylisopropyl)adenosine receptor agonist-induced ERK1/2 phosphorylation at 10 uM relative to control. The format is functional, cell-based.
Test [5] shares this target. The experiment in a line: Allosteric modulation at human adenosine A1 receptor expressed in CHO FlpIn cells assessed as increase in ERK1/2 phosphorylation at 3 to 10 uM relative to control. It is filed as cell-based.

Broadly, the pKb is the Kb on a negative log10 scale, so that one unit is a factor of ten. A lower pKb goes with a high Kb. In the case of `Cc1ccc(C(=O)c2c(N)sc3c2CCCC3)cc1`, the Activity is 70% in test [1] and 91% in test [4]. This compound showed a pKb in test [2] of 5.1. Moreover, the result in test [3] and in test [5] was Active.
As for `Nc1sc2c(c1C(=O)c1ccccc1)CCCCCC2`, the Activity in test [1] turned out to be 49%; in test [4], 36%. Besides, the outcome in test [5] was inactive.
Regarding `Nc1sc2c(c1C(=O)NCc1ccccc1)CCCCCC2`, the Activity in test [1] was 48%; in test [4], 50%. Further, the outcome in test [5] was inactive.
On to `Cc1ccc(C(=O)c2c(N)sc3c2CCCCC3)cc1`, for which the Activity in test [1] turned out to be 55%; in test [4], 68%. Further, the result in test [5] was inactive.
For `NNC(=O)c1c(N)sc2c1CCCCCC2` the same measures were 48%, 48% and “inactive”.
For `NNC(=O)c1c(N)sc2c1CCCCC2` the same measures were 52%, 51% and “inactive”.
For `Nc1sc2c(c1C(=O)NNc1ccccc1)CCCCC2`, the Activity worked out at 44% in test [1] and 42% in test [4]. In addition, in test [5], the result was inactive.
In the same order, the values of `Nc1sc2c(c1C(=O)c1ccc(Cl)cc1)CCCCCC2` are 56%, 63% and “Active”.
Consider `Nc1sc2c(c1C(=O)NNc1ccccc1)CCCCCC2`, for which the Activity in test [1] was 47%; in test [4], 43%. In test [5], the outcome was inactive.
Regarding `Nc1sc2c(c1C(=O)c1cccc(C(F)(F)F)c1)CCC2`, the results for the Activity in test [1] and in test [4] were 75% and 98%, respectively. For the same compound, the outcome in test [5] was Active.
In the same order, the values of `NC(=O)c1c(N)sc2c1CCCCC2` are 47%, 50% and “inactive”.
In the same order, the values of `Nc1sc2c(c1C(=O)c1cccc(C(F)(F)F)c1)CCCCC2` are 53%, 74% and “inactive”.
Consider `Nc1sc2c(c1C(=O)c1cccc(C(F)(F)F)c1)CCCCCC2`, for which the Activity worked out at 57% in test [1] and 65% in test [4]. Also, the pKb in test [2] came out at 5.07. In test [3], the outcome was Active. Besides, the result in test [5] was inactive.
Consider `Nc1sc2c(c1C(=O)c1cccc(C(F)(F)F)c1)CCCC2`, for which the Activity in test [1] was 73%; in test [4], 88%. Also, in test [5], the result was Active.
On to `Cc1ccc(C(=O)c2c(N)sc3c2CCC3)cc1`, for which the Activity stood at 50% in test [1] and 56% in test [4]. Further, the result in test [5] was inactive.
`Cc1ccc(C(=O)c2c(N)sc3c2CCCCCC3)cc1`: the values for the Activity in test [1] and in test [4] were 56% and 75%, respectively. Besides, in test [5], the outcome was inactive.
For `Nc1sc2c(c1C(=O)NCc1cccc(Cl)c1)CCCCCC2`, the Activity was found to be 49% in test [1] and 47% in test [4]. The result in test [5] was inactive.
In the same order, the values of `NC(=O)c1c(N)sc2c1CCCCCC2` are 48%, 48% and “inactive”.
